Data taken from patent US20220370440A1 (Lead Discovery Center GmbH, priority 2018, published 2022).

Experiments:
[1] = target: Her2 Exon 20 INSYVMA Ba/F3 (Homo sapiens, UniProt P04626, DUP772-775, cells depend on it); assay: Her2 Exon 20 INSYVMA Ba/F3 CellTiter-Glo; type: cell-based; settings: CellTiter-Glo, 72 h, read-out: Her2 Exon 20 INSYVMA Ba/F3 CTG IC50
Summary of the method: (§1)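 IC50 values come from dose–response fits of CellTiter-Glo luminescence in Ba/F3 cells treated with compound for 72 h at 37 °C, 5% CO2. Vehicle (DMSO) and 10 μM staurosporine wells set the assay window, with Z′ ≥0.5 required.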

HER2 INS YVMA = target: T1, HER2 INS YVMA (Homo sapiens, UniProt P04626, INS775YVMA); assay: Lance Kinase Activity Assay, HER2 INS YVMA (Her2 Exon 20 INSYVMA Lance); type: biochemical; settings: biochemical Lance assay
T1 construct: purchased DPF
Summary of the method: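 IC50 was fitted to sigmoidal curves of TR-FRET signal (665 and 615 nm emission after 340 nm excitation) from an Eu anti-phospho antibody binding the phosphorylated ULight peptide. The ATP-started reaction ran 1 h at RT and was then quenched with 10 mM EDTA plus antibody for a further 1 h. Compounds were tested as 8-point, 3-fold dilutions.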

[2] = Metabolic stability in mouse liver microsomes without cofactor NADPH; type: in vitro ADME; settings: 3 μM test compound, mouse liver microsomes, without NADPH, 50 min, 37° C., LC-MS/MS
Summary of the method: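 Cofactor-free incubation: no NADPH added to mouse liver microsomes, with compound at 3 μM and 37° C. Remaining parent was quantified by LC-MS/MS at time points up to 50 minutes to track depletion.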

H1781 = H1781 CellTiter-Glo; type: cell-based; settings: NCI-H1781; 72 h compound incubation; read-out: H1781 CTG IC50
Method: 2. Measurement of Cellular Activity
The CellTiter-Glo Luminescent Cell Viability Assay (Promega) is a homogeneous method of determining the number of viable cells in culture. It is based on quantification of ATP, indicating the presence of metabolically active cells. Cells are seeded on day 1 at cell numbers that assure assay linearity and optimal signal intensity. After incubation for 24 h in humidified chambers at 37° C. and 5% CO2, compounds in DMSO are added at different concentrations. Cells are further incubated for 72 h at 37° C. and 5% CO2. Cells treated with the compound vehicle DMSO are used as positive controls and cells treated with 10 μM Staurosporine serve as negative controls. At day 5 the CellTiter Glo Reagent is prepared according to the instructions of the kit (Promega Inc.): Reagent is mixed 1:1 with cell culture medium. Thereon, mixture and assay plates are equilibrated at room temperature for 20 min. Equal volumes of the reagent-medium-mixture is added to the volume of culture medium present in each well. The plates are mixed at ˜200 rpm for 2 minutes on an orbital shaker. The microplates are then incubated at room temperature for 10 minutes for stabilization of the luminescent signal. Following incubation the luminescence is recorded on a Victor microplate reader (Perkin Elmer) using a 200 ms integration time. The data is then analyzed with Excel using the XLFIT Plugin (dose response Fit 205) for IC50-determination. As quality control the Z′-factor is calculated from 16 positive and negative control values. Only assay results showing a Z′-factor ≥0.5 are used for further analysis.
(§2) Inhibition is indicated as […] [nM] (“−”=not measured). Compounds having an activity designated as “A” provided an IC50≤100 nM; compounds having an activity designated as “B” provided an 100 nM<IC50≤500 nM; compounds having an activity designated as “C” provided an 500 nM<IC50≤1000 nM; compounds having an activity designated as “D” provided an 1000 nM<IC50≤100000 nM; and compounds having an activity designated as “E” provided an IC50>10000 nM.

EGFR T790ML858R = EGFR T790ML858R (Homo sapiens, UniProt P00533, L858R/T790M); assay: EGFR T790ML858R Lance assay; type: biochemical
Method: as §2

EGFR wt = EGFR wt (Homo sapiens, UniProt P00533); assay: EGFR wt Lance assay; type: biochemical
Method: as §2

[3] = target: EGFR Exon 20 INSNPH Ba/F3 (Homo sapiens, UniProt P00533, DUP771-773, cells depend on it); assay: EGFR Exon 20 INSNPH Ba/F3 CellTiter-Glo; type: cell-based; settings: CellTiter-Glo, 72 h, read-out: EGFR Exon 20 INSNPH Ba/F3 CTG IC50
Summary of the method: as §1

A431 = A431 CellTiter-Glo; type: cell-based; settings: Homo sapiens, A-431; 72 h compound incubation; read-out: A431 CTG IC50
Summary of the method: (§3)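 72 h compound exposure after 24 h attachment, 37° C./5% CO2; CellTiter-Glo ATP luminescence read-out; IC50 by dose-response fit; DMSO vehicle and 10 μM Staurosporine as controls; plates accepted only if Z′ ≥0.5.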

H1975 = H1975 CellTiter-Glo; type: cell-based; settings: Homo sapiens, NCI-H1975; 72 h compound incubation; read-out: H1975 CTG IC50
Summary of the method: as §3

Chain of EGFR T790ML858R (P00533 25-1210 T790M/L858R): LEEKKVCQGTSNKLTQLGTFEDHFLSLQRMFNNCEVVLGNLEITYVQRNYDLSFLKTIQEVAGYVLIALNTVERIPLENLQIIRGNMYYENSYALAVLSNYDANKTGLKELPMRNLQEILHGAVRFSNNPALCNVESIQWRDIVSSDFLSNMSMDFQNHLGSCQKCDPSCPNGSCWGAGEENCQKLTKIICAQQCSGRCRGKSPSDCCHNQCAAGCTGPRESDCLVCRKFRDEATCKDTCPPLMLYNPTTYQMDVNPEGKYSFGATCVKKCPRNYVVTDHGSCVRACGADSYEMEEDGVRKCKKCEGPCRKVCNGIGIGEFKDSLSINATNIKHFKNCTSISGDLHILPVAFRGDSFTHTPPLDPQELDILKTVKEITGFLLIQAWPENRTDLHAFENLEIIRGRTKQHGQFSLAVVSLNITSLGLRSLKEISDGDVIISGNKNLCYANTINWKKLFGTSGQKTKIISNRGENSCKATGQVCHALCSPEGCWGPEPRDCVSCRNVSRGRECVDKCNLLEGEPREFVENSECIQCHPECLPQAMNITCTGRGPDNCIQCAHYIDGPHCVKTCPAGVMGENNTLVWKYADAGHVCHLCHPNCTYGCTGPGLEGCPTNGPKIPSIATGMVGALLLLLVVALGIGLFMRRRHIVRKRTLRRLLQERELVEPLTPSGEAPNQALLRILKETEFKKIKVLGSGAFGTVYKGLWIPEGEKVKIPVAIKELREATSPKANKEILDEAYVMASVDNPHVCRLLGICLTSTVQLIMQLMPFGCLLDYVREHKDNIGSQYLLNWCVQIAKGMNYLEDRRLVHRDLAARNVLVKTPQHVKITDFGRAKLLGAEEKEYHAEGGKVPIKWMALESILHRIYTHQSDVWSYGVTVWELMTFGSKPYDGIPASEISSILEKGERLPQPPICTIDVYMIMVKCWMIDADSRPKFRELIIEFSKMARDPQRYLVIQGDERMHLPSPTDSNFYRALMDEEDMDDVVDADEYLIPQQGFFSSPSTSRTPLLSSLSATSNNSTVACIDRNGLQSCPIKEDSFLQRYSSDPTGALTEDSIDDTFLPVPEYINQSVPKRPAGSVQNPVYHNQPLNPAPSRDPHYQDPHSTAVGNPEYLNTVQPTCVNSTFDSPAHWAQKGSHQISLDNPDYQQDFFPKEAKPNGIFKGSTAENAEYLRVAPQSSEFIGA
Chain of EGFR Exon 20 INSNPH Ba/F3 (P00533 with tags, fused parts or gaps DUP771-773): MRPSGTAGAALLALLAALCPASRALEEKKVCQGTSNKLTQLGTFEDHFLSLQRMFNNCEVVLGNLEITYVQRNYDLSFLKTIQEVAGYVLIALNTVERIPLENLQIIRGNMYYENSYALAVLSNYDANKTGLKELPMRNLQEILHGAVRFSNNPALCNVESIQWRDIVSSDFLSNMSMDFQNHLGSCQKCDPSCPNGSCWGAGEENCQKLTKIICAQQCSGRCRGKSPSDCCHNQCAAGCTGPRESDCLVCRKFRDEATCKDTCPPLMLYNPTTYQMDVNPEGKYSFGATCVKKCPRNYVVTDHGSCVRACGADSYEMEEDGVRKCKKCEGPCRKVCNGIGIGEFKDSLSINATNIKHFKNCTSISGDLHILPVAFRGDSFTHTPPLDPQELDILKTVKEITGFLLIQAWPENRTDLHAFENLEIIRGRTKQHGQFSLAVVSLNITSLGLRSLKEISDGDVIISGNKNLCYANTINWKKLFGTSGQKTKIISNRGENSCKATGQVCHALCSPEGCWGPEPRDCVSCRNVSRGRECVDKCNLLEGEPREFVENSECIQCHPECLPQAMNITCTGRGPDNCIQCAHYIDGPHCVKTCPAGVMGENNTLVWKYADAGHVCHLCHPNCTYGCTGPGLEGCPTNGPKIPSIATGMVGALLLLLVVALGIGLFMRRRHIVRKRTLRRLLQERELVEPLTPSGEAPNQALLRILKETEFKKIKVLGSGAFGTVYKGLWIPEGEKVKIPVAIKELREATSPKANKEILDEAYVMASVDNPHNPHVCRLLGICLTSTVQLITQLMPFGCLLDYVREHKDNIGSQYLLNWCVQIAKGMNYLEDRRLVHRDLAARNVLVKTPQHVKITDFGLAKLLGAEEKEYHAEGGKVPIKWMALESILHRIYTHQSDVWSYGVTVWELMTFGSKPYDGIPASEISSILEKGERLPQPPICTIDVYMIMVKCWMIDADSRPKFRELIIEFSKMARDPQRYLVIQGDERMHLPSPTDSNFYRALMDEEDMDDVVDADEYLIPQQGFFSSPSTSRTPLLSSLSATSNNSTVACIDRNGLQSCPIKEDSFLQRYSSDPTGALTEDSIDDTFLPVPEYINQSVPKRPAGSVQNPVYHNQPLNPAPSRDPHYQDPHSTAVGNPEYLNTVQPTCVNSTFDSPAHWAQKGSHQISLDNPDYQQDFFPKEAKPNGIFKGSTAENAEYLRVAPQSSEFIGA
T1 sequence (P04626 with tags, fused parts or gaps INS775YVMA): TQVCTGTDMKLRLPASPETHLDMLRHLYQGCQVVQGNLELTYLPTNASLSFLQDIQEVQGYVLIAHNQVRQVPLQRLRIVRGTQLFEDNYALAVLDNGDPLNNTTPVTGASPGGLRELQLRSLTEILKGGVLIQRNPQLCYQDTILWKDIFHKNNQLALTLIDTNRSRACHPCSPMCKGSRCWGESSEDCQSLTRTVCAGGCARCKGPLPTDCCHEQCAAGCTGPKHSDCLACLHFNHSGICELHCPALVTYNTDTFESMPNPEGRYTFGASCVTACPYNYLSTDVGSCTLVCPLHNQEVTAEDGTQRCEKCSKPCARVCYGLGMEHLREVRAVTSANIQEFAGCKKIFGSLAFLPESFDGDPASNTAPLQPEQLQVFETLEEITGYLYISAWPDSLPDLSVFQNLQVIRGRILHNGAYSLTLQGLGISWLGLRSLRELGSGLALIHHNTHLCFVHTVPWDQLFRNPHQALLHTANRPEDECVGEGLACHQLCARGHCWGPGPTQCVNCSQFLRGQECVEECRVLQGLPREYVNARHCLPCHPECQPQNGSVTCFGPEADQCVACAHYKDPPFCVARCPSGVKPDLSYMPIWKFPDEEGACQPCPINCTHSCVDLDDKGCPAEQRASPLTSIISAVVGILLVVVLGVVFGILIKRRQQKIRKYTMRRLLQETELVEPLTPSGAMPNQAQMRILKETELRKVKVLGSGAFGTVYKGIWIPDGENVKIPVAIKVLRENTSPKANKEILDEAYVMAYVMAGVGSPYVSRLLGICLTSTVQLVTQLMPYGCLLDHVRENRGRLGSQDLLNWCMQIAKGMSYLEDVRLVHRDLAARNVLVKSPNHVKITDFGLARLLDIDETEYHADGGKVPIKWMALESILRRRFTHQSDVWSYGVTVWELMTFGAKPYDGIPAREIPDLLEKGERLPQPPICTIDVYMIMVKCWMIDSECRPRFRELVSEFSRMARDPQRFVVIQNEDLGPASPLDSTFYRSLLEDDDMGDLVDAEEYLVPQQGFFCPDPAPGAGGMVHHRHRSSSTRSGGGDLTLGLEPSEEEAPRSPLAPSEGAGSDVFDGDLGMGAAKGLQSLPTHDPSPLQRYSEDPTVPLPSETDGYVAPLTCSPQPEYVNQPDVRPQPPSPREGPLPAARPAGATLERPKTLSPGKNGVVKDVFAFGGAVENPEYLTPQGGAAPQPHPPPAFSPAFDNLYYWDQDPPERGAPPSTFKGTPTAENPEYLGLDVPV
Chain of Her2 Exon 20 INSYVMA Ba/F3 (P04626 with tags, fused parts or gaps DUP772-775): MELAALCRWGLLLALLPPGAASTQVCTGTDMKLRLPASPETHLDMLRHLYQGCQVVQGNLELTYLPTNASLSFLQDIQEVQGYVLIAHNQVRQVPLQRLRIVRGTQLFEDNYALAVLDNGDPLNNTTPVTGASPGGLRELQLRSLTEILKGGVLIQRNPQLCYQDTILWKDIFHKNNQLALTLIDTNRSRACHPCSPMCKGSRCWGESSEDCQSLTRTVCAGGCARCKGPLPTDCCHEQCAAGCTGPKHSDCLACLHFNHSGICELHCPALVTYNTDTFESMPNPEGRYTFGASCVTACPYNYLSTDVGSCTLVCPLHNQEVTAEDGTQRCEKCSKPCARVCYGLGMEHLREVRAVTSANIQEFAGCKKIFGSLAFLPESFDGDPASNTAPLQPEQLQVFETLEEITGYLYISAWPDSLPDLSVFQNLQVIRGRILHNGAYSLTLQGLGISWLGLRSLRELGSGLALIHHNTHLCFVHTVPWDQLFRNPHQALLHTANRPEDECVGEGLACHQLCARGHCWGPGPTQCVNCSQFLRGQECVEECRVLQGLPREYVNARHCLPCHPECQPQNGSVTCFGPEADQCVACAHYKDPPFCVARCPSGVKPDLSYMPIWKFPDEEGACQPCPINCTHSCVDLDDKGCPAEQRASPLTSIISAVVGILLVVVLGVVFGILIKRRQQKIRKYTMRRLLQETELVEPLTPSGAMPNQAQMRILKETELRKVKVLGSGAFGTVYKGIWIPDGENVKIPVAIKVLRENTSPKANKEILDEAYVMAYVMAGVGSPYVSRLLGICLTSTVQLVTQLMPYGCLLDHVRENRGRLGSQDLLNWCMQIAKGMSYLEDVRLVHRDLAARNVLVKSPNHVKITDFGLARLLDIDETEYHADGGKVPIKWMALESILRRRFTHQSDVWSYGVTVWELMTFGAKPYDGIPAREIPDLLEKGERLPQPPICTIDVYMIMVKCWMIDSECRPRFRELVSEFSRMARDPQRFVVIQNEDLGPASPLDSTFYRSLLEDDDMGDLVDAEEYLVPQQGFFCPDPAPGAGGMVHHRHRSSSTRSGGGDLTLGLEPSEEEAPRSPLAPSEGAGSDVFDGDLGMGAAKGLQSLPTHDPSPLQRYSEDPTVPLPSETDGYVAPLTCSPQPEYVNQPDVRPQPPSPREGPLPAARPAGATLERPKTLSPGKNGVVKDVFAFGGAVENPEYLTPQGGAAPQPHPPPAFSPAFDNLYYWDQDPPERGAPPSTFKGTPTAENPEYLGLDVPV

GI50 [1] | IC50 (HER2 INS YVMA) | Stability in presence of mouse liver microsomes without cofactor NADPH [% remaining after 50 min] [2] | IC50 (H1781) | IC50 (EGFR T790ML858R) | IC50 (EGFR wt) | GI50 [3] | IC50 (A431) | IC50 (H1975) | SMILES
100 to 500 nM | 100 to 500 nM | >99 % remaining after 50 min | 500 to 1000 nM | ≤ 100 nM | ≤ 100 nM | 500 to 1000 nM | 100 to 500 nM | ≤ 100 nM | C=CC(=O)Nc1cc(-c2c(-c3ccc(N4CCN(C)CC4)nc3)[nH]c3ncccc23)ccc1C [Example 78, N-(2-methyl-5-(2-(6-(4-methylpiperazin-1-yl)pyridin-3-yl)-1H-pyrrolo[2,3-b]pyridin-3-yl)phenyl)acrylamide 2,2,2-trifluoroacetate]
500 to 1000 nM | ≤ 100 nM | >99 % remaining after 50 min | 1000 to 100000 nM | ≤ 100 nM | ≤ 100 nM | 500 to 1000 nM | 1000 to 100000 nM | 100 to 500 nM | C=CC(=O)N1CCCc2ccc(-c3c(-c4ccc(N5CCN(C)CC5)cc4)[nH]c4nccc(Cl)c34)cc21 [Example 86, 1-(7-(4-chloro-2-(4-(4-methylpiperazin-1-yl)phenyl)-1H-pyrrolo[2,3-b]pyridin-3-yl)-3,4-dihydroquinolin-1(2H)-yl)prop-2-en-1-one 2,2,2-trifluoroacetate]
100 to 500 nM | ≤ 100 nM | >99 % remaining after 50 min | 500 to 1000 nM | ≤ 100 nM | ≤ 100 nM | 100 to 500 nM | 500 to 1000 nM | ≤ 100 nM | C=CC(=O)Nc1cc(-c2c(-c3cccc(CN4CCN(C)CC4)c3)[nH]c3nccc(OC)c23)ccc1C [Example 76, N-(5-(4-methoxy-2-(3-((4-methylpiperazin-1-yl)methyl)phenyl)-1H-pyrrolo[2,3-b]pyridin-3-yl)-2-methylphenyl)acrylamide]
100 to 500 nM | ≤ 100 nM | >99 % remaining after 50 min | 1000 to 100000 nM | ≤ 100 nM | ≤ 100 nM | 100 to 500 nM | 1000 to 100000 nM | 100 to 500 nM | C=CC(=O)N1CCOc2ccc(-c3c(-c4ccc(N5CCN(C)CC5)cc4)[nH]c4nccc(Cl)c34)cc21 [Example 83, 1-(6-(4-chloro-2-(4-(4-methylpiperazin-1-yl)phenyl)-1H-pyrrolo[2,3-b]pyridin-3-yl)-2H-benzo[b][1,4]oxazin-4(3H)-yl)prop-2-en-1-one 2,2,2-trifluoroacetate]
500 to 1000 nM | 100 to 500 nM | >99 % remaining after 50 min | – | ≤ 100 nM | ≤ 100 nM | 1000 to 10000 nM | 1000 to 100000 nM | 500 to 1000 nM | C=CC(=O)N1CCCc2ccc(-c3c(-c4ccc(N5CCN(C)CC5)nc4)[nH]c4nccc(Cl)c34)cc21 [Example 93, 1-(7-(4-chloro-2-(6-(4-methylpiperazin-1-yl)pyridin-3-yl)-1H-pyrrolo[2,3-b]pyridin-3-yl)-3,4-dihydroquinolin-1(2H)-yl)prop-2-en-1-one]
500 to 1000 nM | ≤ 100 nM | >99 % remaining after 50 min | – | ≤ 100 nM | ≤ 100 nM | 1000 to 10000 nM | 1000 to 100000 nM | 100 to 500 nM | C=CC(=O)N1CCc2ccc(-c3c(-c4ccc(CN5CCOCC5)cc4)[nH]c4nccc(Cl)c34)cc21 [Example 68, 1-(6-(4-chloro-2-(4-(morpholinomethyl)phenyl)-1H-pyrrolo[2,3-b]pyridin-3-yl)indolin-1-yl)prop-2-en-1-one]

Further lines, the compound ahead of its results:

SMILES | GI50 [1] | IC50 (HER2 INS YVMA) | Stability in presence of mouse liver microsomes without cofactor NADPH [% remaining after 50 min] [2] | IC50 (H1781) | IC50 (EGFR T790ML858R) | IC50 (EGFR wt) | GI50 [3] | IC50 (A431) | IC50 (H1975)
C=CC(=O)Nc1cc(-c2c(-c3ccnc(N4CCN(C)CC4)c3)[nH]c3nccc(Cl)c23)ccc1C [Example 26, N-(5-(4-chloro-2-(2-(4-methylpiperazin-1-yl)pyridin-4-yl)-1H-pyrrolo[2,3-b]pyridin-3-yl)-2-methylphenyl)acrylamide] | 100 to 500 nM | ≤ 100 nM | >99 % remaining after 50 min | 500 to 1000 nM | ≤ 100 nM | ≤ 100 nM | 100 to 500 nM | 100 to 500 nM | ≤ 100 nM
C=CC(=O)Nc1cc(-c2c(-c3ccc(C4CCN(C)CC4)cc3)[nH]c3nccc(Cl)c23)ccc1C [Example 3, N-(5-(4-chloro-2-(4-(1-methylpiperidin-4-yl)phenyl)-1H-pyrrolo[2,3-b]pyridin-3-yl)-2-methylphenyl)acrylamide] | ≤ 100 nM | ≤ 100 nM | >99 % remaining after 50 min | 100 to 500 nM | ≤ 100 nM | ≤ 100 nM | ≤ 100 nM | 100 to 500 nM | ≤ 100 nM
C=CC(=O)Nc1cc(-c2c(-c3ccc(N4CCN(C)CC4)cc3)[nH]c3nccc(Cl)c23)ccc1C [Example 2, N-(5-(4-chloro-2-(4-(4-methylpiperazin-1-yl)phenyl)-1H-pyrrolo[2,3-b]pyridin-3-yl)-2-methylphenyl)acrylamide] | ≤ 100 nM | ≤ 100 nM | >99 % remaining after 50 min | 100 to 500 nM | ≤ 100 nM | ≤ 100 nM | ≤ 100 nM | 100 to 500 nM | ≤ 100 nM
C=CC(=O)N1CCc2ccc(-c3c(-c4ccc(N5CCN(C)CC5)cc4)[nH]c4nccc(Cl)c34)cc21 [Example 56, 1-(6-(4-chloro-2-(4-(4-methylpiperazin-1-yl)phenyl)-1H-pyrrolo[2,3-b]pyridin-3-yl)indolin-1-yl)prop-2-en-1-one] | 100 to 500 nM | ≤ 100 nM | >99 % remaining after 50 min | 500 to 1000 nM | ≤ 100 nM | ≤ 100 nM | 100 to 500 nM | 500 to 1000 nM | ≤ 100 nM
C=CC(=O)Nc1cc(-c2c(-c3cccc(C(=O)NC4CCN(Cc5ccccc5)CC4)c3)[nH]c3nccc(Cl)c23)ccc1C [Example 48, 3-(3-(3-acrylamido-4-methylphenyl)-4-chloro-1H-pyrrolo[2,3-b]pyridin-2-yl)-N-(1-benzylpiperidin-4-yl)benzamide] | 100 to 500 nM | ≤ 100 nM | – | 100 to 500 nM | ≤ 100 nM | ≤ 100 nM | 100 to 500 nM | 100 to 500 nM | ≤ 100 nM
